Where two headings read alike, the source gives them in different places.
Legend:
IKK = biological target: T1, IKK (Homo sapiens, UniProt O14920); assay: In vitro kinase assay: IKK immunoprecipitated from LPS-stimulated THP-1 cells, GST-IκBα phosphorylation; type: biochemical; settings: GST-IκB phosphorylated by activated IKK pretreated with the compound
T1 construct: IKK was immunoprecipitated with an IKKα/β antibody; endogenous in cells; host or cells: THP-1 cells stimulated with 1 μg/ml LPS; whole cell extract immunoprecipitated with an IKKα/β antibody (Santa Cruz)
T1 sequence (O14920 whole entry): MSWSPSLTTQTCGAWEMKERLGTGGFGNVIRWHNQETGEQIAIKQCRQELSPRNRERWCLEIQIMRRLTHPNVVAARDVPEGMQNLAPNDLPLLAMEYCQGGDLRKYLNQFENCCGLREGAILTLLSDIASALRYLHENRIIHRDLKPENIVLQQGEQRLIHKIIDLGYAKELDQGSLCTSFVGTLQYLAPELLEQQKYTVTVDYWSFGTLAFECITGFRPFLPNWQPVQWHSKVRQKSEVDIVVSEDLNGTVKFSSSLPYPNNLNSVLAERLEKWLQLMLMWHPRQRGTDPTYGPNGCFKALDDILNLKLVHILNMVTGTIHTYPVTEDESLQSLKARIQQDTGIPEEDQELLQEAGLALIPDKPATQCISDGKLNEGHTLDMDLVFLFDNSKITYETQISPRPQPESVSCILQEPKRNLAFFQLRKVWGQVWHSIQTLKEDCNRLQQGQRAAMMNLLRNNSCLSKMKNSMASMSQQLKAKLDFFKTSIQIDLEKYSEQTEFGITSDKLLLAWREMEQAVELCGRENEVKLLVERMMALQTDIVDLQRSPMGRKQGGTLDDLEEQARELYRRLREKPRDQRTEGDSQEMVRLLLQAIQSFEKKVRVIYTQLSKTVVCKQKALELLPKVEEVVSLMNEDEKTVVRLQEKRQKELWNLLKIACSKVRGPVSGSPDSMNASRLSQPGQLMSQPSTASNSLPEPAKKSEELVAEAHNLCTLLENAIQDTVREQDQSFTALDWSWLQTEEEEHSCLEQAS
T1 sequence (O15111 whole entry partner): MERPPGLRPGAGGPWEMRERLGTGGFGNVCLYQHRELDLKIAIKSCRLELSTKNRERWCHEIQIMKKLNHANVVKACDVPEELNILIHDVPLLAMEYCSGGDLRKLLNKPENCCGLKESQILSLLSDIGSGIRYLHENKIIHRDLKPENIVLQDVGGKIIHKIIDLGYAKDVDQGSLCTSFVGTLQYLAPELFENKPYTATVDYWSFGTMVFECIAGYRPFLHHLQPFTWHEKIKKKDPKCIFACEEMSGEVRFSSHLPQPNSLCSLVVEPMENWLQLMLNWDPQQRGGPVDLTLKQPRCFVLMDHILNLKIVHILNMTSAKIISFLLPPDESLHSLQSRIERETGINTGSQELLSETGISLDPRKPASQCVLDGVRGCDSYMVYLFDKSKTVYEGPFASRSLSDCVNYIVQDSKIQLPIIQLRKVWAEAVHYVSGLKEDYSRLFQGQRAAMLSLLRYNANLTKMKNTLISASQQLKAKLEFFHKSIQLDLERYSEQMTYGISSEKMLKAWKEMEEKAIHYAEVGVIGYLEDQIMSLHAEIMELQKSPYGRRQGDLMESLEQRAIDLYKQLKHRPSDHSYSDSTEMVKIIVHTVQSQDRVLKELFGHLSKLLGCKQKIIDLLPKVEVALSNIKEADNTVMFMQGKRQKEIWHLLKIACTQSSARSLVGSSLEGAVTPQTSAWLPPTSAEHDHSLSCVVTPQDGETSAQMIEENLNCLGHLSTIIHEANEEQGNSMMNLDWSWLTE
T1 sequence (Q9Y6K9 whole entry partner): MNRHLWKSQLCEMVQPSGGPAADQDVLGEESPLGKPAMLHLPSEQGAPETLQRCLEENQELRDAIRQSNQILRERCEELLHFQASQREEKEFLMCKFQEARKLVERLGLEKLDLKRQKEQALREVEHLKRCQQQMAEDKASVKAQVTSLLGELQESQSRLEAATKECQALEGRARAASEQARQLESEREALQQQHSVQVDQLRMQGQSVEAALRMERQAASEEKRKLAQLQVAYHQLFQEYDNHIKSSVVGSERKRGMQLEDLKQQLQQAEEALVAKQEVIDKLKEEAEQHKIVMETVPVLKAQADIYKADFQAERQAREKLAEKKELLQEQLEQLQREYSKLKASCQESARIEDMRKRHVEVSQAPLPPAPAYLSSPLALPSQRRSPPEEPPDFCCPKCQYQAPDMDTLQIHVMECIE
Experimental: In vitro kinase assay: THP-1 cells (1×10^7 cells) were stimulated with 1 μg/ml LPS for the indicated time periods and whole cell extracts were prepared as described above. IKK was immunoprecipitated with an IKKα/β antibody (raised against amino acid 470-755 of IKKβ of human origin but partially cross-reactive with IKKα as detected by Western Blotting (Santa Cruz Biotechnology Inc.). Compound A was diluted in kinase buffer (25 mM HEPES pH 7.5, 10 mM magnesium acetate, 50 μM ATP) at the appropriate concentrations. The compound was added to the beads for 30 min. at 30° C. The kinase reaction was started by adding 2.5 μg of the GST-IκBα substrate (Santa Cruz Biotechnology Inc.) together with 2 μCi γ-^32P-ATP (Amersham Pharmacia Biotech) per sample. The reaction was allowed to proceed for 30 min. at 30° C., and the IKK activity was measured by the amount of radioactive-labelled GST-IκBα bands, quantified by the STORM860 Phospho-Imager.
A general problem with the kinase assay is prestimulation of the kinase. To achieve a value for the zero-point, the LPS-activated IKK mixture was incubated with 20 μM myricetin (Sigma-Aldrich), which is a known IKKβ inhibitor (S. H. Tsal et al., J. Cell Biochem. 74, 1999, pp. 606-615). This value was subtracted from the all other values. All data are expressed as percentage of the activity of the LPS-activated IKKβ kinase treated with 0.1% DMSO.

NYH SCLC cells = assay: DNA synthesis (tritiated thymidine incorporation) in NYH SCLC cells; type: cell-based; settings: incorporation of tritiated thymidine in NYH SCLC cells; read-out: NYH proliferation in vitro (IC50 nM)
Experimental: DNA synthesis: NYH SCLC, HT-1080, Colo-320, PC-3 and H460 cells (7.5×10^3 cells/ml) were seeded in tissue culture vessels and the test compound were added 2 h after plating. Following an incubation for 144 h tritiated thymidine (5 CI/mmol, Amersham Pharmacia Biotech) was added to the culture at the concentration of 1 μCi/ml, and the cells were incubated for additional 4 h. The incorporated thymidine was measured with a β-counter. Each compound concentration was tested in triplicate.

NF-κB [1] = assay: NF-κB-dependent luciferase assay in HT-1080 cells, TNF-α stimulation; type: cell-based, human; settings: TNF-α 50 ng/ml, up to 24 h
Experimental: (§1) The NF-κB-luciferase reporter plasmid (pBIIX) and pRL-TK control vector described in Example 1 were used for the luciferase assay,
The HT-1080 cells were seeded at a density of 3×10^4 cells/cm^2 in 6 well-plates. The following day, the cells were co-transfected with construct DNA and pRL-TK vector using FuGene Transfection Reagent. A mixture of 10 μl Fugene and 90 μl serum free medium (per well) was prepared and Incubated for 5 min at room temperature. Then, this mixture was transferred to a mixture of construct DNA (1.25 μg per well) and pRL-TK vector (0.25 μg per well), gently mixed, incubated for 15 min at room temperature and added to the cells. The cells were treated at 37° C. with compound A (10^−12−10^−5 M) or DMSO for 24 h before stimulation with TNF-α (50 ng/ml) for 6 h.
(§2) The cell lysate was assayed for luciferase activity using the Dual luciferase kit as described by the manufacturer (Promega). All transfections were performed in triplicate. Firefly luciferase activity was corrected for differences in transfection efficiency by normalizing it to the measured Renilla luciferase activity.
(§3) NF-κB activity was measured by the luciferase assay described in Example 1.

NF-κB [2] = assay: NF-κB-dependent luciferase assay in Colo-320 cells, TNF-α stimulation; type: cell-based, human; settings: TNF-α 50 ng/ml, up to 24 h
Experimental: as §1
The Colo-320 cells were seeded with a density of 5×10^4 cells/cm^2 in 6-well plates (NUNC). The following day, the cells were co-transfected with construct DNA and pRL-TK using FuGene Transfection Reagent (Boehringer Mannheim). A mixture of 5 μl Fugene and 95 μl serum free medium (per well) was prepared and incubated for 5 min at room temperature. Then, the mixture was transferred to a mixture of construct DNA (2.5 μg per well) and pRL-TK vector (0.25 μg per well), gently mixed, incubated for 15 min at room temperature and added to the cells. The cells were treated at 37° C. with compound A (10^−12−10^−5 M) or DMSO for 24 h before stimulation with TNF-α (50 ng/ml) for 6 h.
as §2, §3

NF-κB [3] = assay: NF-κB-dependent luciferase assay in PC-3 cells, TNF-α stimulation; type: cell-based, human; settings: TNF-α 50 ng/ml, up to 24 h
Experimental: as §1
The PC-3 cells were seeded at a density of 3×10^4 cells/cm^2 in 6 well-plates. The following day, the cells were co-transfected with construct DNA and pRL-TK vector using DOTAP liposomal transfection reagent (Boehringer Mannheim). The construct DNA (4.0 μg per well), the pRL-TK vector (1.0 μg per well), DOTAP (16.7 μl per well) and dH2O (total volume 100 μl per well) were carefully mixed and incubated for 15 min at 37° C. A growth medium without serum (900 μl per well) was added and the transfection mixture (1 ml per well) was added to the cells. After 4 h at 37° C., a growth medium with 20% FBS (1 ml per well) was added. The cells were treated at 37° C. with compound A (10^−12−10^−5 M) or DMSO for 24 h before stimulation with TNF-α (50 ng/ml) for 6 h.
as §2, §3

NYH Xenografts = assay: NYH xenografts in nude mice, tumour growth; type: in vivo, NMRI nu/nu mice; settings: nude mice with NYH SCLC tumours, 14 days of treatment with 20 mg/kg
Experimental: All of the animal experiments were conducted according to the guidelines and ethical standards of the Danish Committee for Animal Experiments. Female NMRI nu/nu mice 6 weeks of age were purchased from M&B (Ry, Denmark). The mice were allowed an acclimatisation period of 1-3 weeks before start of the experiments. The nude mice were housed in Scantainers under semi-sterile conditions and all handling of mice was performed in a laminar flow bench.
NYH Xenografts. NMRI nu/nu mice were injected with 1×10^7 cells in 0.2 ml media s.c. in both flanks and tumour growth was measured twice weekly. The tumour area was used as expression of the tumour size and was calculated from two perpendicular diameters measured with a digital caliper. Compound A was given for fourteen consecutive days by oral gavage from day 4-6 when the tumour size was 24-30 mm^2. Each treatment group consisted of 10 mice.
Statistical Methods In the animal models, tumour sizes were expressed by the mean of the trends in each treatment group. The trend is the linear increment or tumour size, where tumour size is the square root of the (mean) area of the tumour(s). Comparison with controls was expressed as T/C % and calculated as follows:
A=(overall mean tumour size at baseline+mean trend of treatment*intended days of treatment)
B=(overall mean tumour size at baseline+mean trend of control*intended days of treatment)
Overall mean tumour size at baseline=pooling all treatments this is the mean of all baseline values. For each mouse the baseline value is calculated as the square root of the (mean) area of the tumour(s).
Significance was tested with the Bonferroni correction. This correction is a method for adjusting (lowering) the significance level so the overall finding of one significant difference due to chance is around 5 percent.

Row | Compound | IC50 (IKK; read-out: IKK activity in vitro (IC50 nM)) | IC50 (NYH SCLC cells) | NF-κB activity increase compared to the control (NF-κB [1]) | NF-κB activity increase compared to the control (NF-κB [2]) | effect on the NF-κB activity (NF-κB [3]) | IC50 (IKK; cell prints (M), head nM, read-out: IKK activity in vitro (IC50)) | NYH tumor growth in vivo (T/C in %) (NYH Xenografts)
1 | COc1ccc(NC(=NC#N)NCCCCCCOc2ccc(Cl)cc2)cn1 [compound C] | 22 ± 2.4 nM | 567 ± 127 nM | – | – | – | – | –
2 | TNF-α | – | – | approximately 12 fold | ~46 fold | only a small effect | – | –
3 | CCOC(=O)c1cccc(NC(=NC#N)NCCCCCCOc2ccc(Cl)cc2)c1 [compound E] | – | 597 ± 42 nM | – | – | – | > 10000 nM | −17.1%
